row,melting point [°C],Compound
1,175 to 176,"O=c1ccc2cnc(Nc3ccccc3)nc2n1CCCOc1ccccc1 [Example 87, 8-(3-Phenoxypropyl)-2-phenylamino-8H-pyrido[2,3-d]pyrimidin-7-one]"
2,194 to 195,"CCNc1ncc2ccc(=O)n(C)c2n1 [Example 65, 2-Ethylamino-8-methyl-8H-pyrido[2,3-d]pyrimidin-7-one]"
3,103 to 104,"CCn1c(=O)ccc2cnc(NC(C)(C)C)nc21 [Example 46, 2-tert-Butylamino-8-ethyl-8H-pyrido[2,3-d]pyrimidin-7-one]"
4,197 to 198,"O=c1ccc2cnc(Nc3ccc(-n4cccn4)cc3)nc2n1C1CCCC1 [Example 191, 8-Cyclopentyl-2-(4-pyrazol-1-yl-phenylamino)-8H-pyrido[2,3-d]pyrimidin-7-one]"
5,148 to 150,"CN1CCN(c2ccc(Nc3ncc4ccc(=O)n(CCCOCc5ccccc5)c4n3)cc2)CC1 [Example 115, 8-(3-Benzyloxy-propyl)-2-[4-(4-methyl-piperazin-1-yl)-phenylamino]-8H-pyrido[2,3-d]pyrimidin-7-one]"
6,178 to 179,"O=c1ccc2cnc(Nc3ccc(N4CCCC(O)C4)cc3)nc2n1C1CCCC1 (stereo not drawn) [Example 206, 8-Cyclopentyl-2-[4-(3-hydroxy-piperidin-1-yl)-phenylamino]-8H-pyrido[2,3-d]pyrimidin-7-one]"
7,144 to 145,"CC(C)(C)OC(=O)C1CCCN1c1ccc(Nc2ncc3ccc(=O)n(C4CCCCC4)c3n2)cc1 (stereo not drawn) [Example 170, 1-[4-(8-Cyclohexyl-7-oxo-7,8-dihydro-pyrido[2,3-d]pyrimidin-2-ylamino)-phenyl]-pyrrolidine-2-carboxylic acid tert-butyl ester]"
8,84 to 85,"CCN(CC)CCOc1ccc(Nc2ncc3ccc(=O)n(C(C)C)c3n2)cc1 [Example 59, 2-[4-(2-Diethylaminoethoxy)-phenylamino]-8-isopropyl-8H-pyrido[2,3-d]-pyrimidin-7-one]"
9,118 to 119,"CC(C)n1c(=O)ccc2cnc(Nc3ccc(OCCN4CCOCC4)cc3)nc21 [Example 141, 8-Isopropyl-2-[4-(2-morpholin-4-yl-ethoxy)-phenylamino]-8H-pyrido[2,3-d]pyrimidin-7-one]"
10,155,"Nc1ncc2ccc(=O)n(C3CCCCC3)c2n1 [Example 226, 2-Amino-8-cyclohexyl-8H-pyrido[2,3-d]pyrimidin-7-one]"
11,170 to 171,"CC(C)n1c(=O)ccc2cnc(Nc3ccccc3)nc21 [Example 43, 8-Isopropyl-2-phenylamino-8H-pyrido[2,3-d]pyrimidin-7-one]"
12,215 to 216,"COc1ccc(Cn2c(=O)ccc3cnc(Nc4ccccc4)nc32)cc1 [Example 58, 8-(4-Methoxybenzyl)-2-phenylamino-8H-pyrido[2,3-d]pyrimidin-7-one]"
13,108 to 109,"CCN(CC)c1ccc(Nc2ncc3ccc(=O)n(CC)c3n2)cc1 [Example 78, 2-(4-Diethylamino-phenylamino)-8-ethyl-8H-pyrido[2,3-d]pyrimidin-7-one]"
14,156 to 157,"O=c1ccc2cnc(Nc3ccc(N4CCCC(CCCN5CCOCC5)C4)cc3)nc2n1C1CC2CCC1C2 (stereo not drawn) [Example 262, 8-Bicyclo[2.2.1]hept-2-yl-2-{4-[3-(3-morpholin-4-yl-propyl)-piperidin-1-yl]-phenylamino}-8H-pyrido[2,3-d]pyrimidin-7-one]"
15,146 to 147,"CCCCNc1ncc2ccc(=O)n(C)c2n1 [Example 64, 2-Butylamino-8-methyl-8H-pyrido[2,3-d]pyrimidin-7-one]"
16,192,"O=c1ccc2cnc(Nc3cccc(OC(F)(F)C(F)F)c3)nc2n1C1CC2CCC1C2 (stereo not drawn) [Example 213, 8-Bicyclo[2.2.1]hept-2-yl-2-[3-(1,1,2,2-tetrafluoro-ethoxy)-phenylamino]-8H-pyrido[2,3-d]pyrimidin-7-one]"
17,259 to 262,"CN1CCN(c2ccc(Nc3ncc4ccc(=O)n(-c5ccccc5)c4n3)cc2)CC1 [Example 113, 2-[4-(4-Methyl-piperazin-1-yl)-phenylamino]-8-phenyl-8H-pyrido[2,3-d]pyrimidin-7-one]"
18,148 to 150,"CCNc1nc(Nc2ccccc2)ncc1C(C)=CC(=O)OCC [Example 73, 3-(4-Ethylamino-2-phenylamino-pyrimidin-5-yl)-but-2-enoic acid ethyl ester]"
19,165,"COc1ccc(CNc2ncc3ccc(=O)n(C4CCCCC4)c3n2)cc1 [Example 225, 8-Cyclohexyl-2-(4-methoxy-benzylamino)-8H-pyrido[2,3-d]pyrimidin-7-one]"
20,121 to 122,"CCN(CC)CCOc1ccc(Nc2ncc3ccc(=O)n(C4CCCCCC4)c3n2)cc1 [Example 156, 8-Cycloheptyl-2-[4-(2-diethylamino-ethoxy)-phenylamino]-8H-pyrido[2,3-d]pyrimidin-7-one]"
21,207 to 208,"CCn1c(=O)ccc2cnc(Nc3ccc(-c4ccccc4)cc3)nc21 [Example 49, 2-(Biphenyl-4-ylamino)-8-ethyl-8H-pyrido[2,3-d]pyrimidin-7-one]"

row,melting point [°C],Compound
1,135 to 136,"CCn1c(=O)ccc2cnc(NC3CCCCC3)nc21 [Example 48, 2-Cyclohexylamino-8-ethyl-8H-pyrido[2,3-d]pyrimidin-7-one]"
2,175 to 177,"CC1CN(c2ccc(Nc3ncc4ccc(=O)n(C5CCCCC5)c4n3)cc2)CC(C)N1CCO (stereo not drawn) [Example 143, 8-Cyclohexyl-2-{4-[4-(2-hydroxy-ethyl)-3,5-dimethyl-piperazin-1-yl]-phenylamino}-8H-pyrido[2,3-d]pyrimidin-7-one]"
3,213 to 214,"O=c1ccc2cnc(Nc3ccc(N4CCSCC4)cc3)nc2n1C1CCCCC1 [Example 177, 8-Cyclohexyl-2-(4-thiomorpholin-4-yl-phenylamino)-8H-pyrido[2,3-d]pyrimidin-7-one]"
4,160 to 162,"Cn1c(=O)ccc2cnc(NCc3ccccc3)nc21 [Example 63, 2-Benzylamino-8-methyl-8H-pyrido[2,3-d]pyrimidin-7-one]"
5,119 to 121,"CCN(CC)CCOc1ccc(Nc2ncc3ccc(=O)n(C4CCCCC4)c3n2)cc1C [Example 150, 8-Cyclohexyl-2-[4-(2-diethylamino-ethoxy)-3-methyl-phenylamino]-8H-pyrido[2,3-d]pyrimidin-7-one]"
6,106 to 107,"CCNc1nc(Nc2ccccc2)ncc1CCC(=O)OCC [Example 68, 3-(4-Ethylamino-2-phenylamino-pyrimidin-5-yl)propionic acid ethyl ester]"
7,236 to 237,"O=c1ccc2cnc(Nc3ccc(N4CCC(CCO)CC4)cc3)nc2n1C1CCCCC1 [Example 216, 8-Cyclohexyl-2-{4-[4-(2-hydroxy-ethyl)-piperidin-1-yl]-phenylamino}-8H-pyrido[2,3-d]pyrimidin-7-one]"
8,225 to 226,"O=c1ccc2cnc(Nc3ccccc3)nc2n1C1CC2CCC1C2 (stereo not drawn) [Example 180, 8-Bicyclo[2.2.1]hept-2-yl-2-phenylamino-8H-pyrido[2,3-d]pyrimidin-7-one]"
9,234 to 235,"O=c1ccc2cnc(Nc3ccc(-n4cccn4)cc3)nc2n1C1CC2CCC1C2 (stereo not drawn) [Example 218, 8-Bicyclo[2.2.1]hept-2-yl-2-(4-pyrazol-1-yl-phenylamino)-8H-pyrido[2,3-d]pyrimidin-7-one]"
10,198 to 200,"O=c1ccc2cnc(Nc3ccc(N4CCCCC4)cc3)nc2n1C1CCCCC1 [Example 142, 8-Cyclohexyl-2-(4-piperidin-1-yl-phenylamino)-8H-pyrido[2,3-d]pyrimidin-7-one]"
11,123 to 124,"O=c1ccc2cnc(Nc3cccc(N4CCCCC4)c3)nc2n1C1CCCCCC1 [Example 201, 8-Cycloheptyl-2-(3-piperidin-1-yl-phenylamino)-8H-pyrido[2,3-d]pyrimidin-7-one]"
12,155 to 156,"Cn1c(=O)ccc2cnc(NCCc3ccccn3)nc21 [Example 66, 8-Methyl-2-(2-pyridin-2-yl-ethylamino)-8H-pyrido[2,3-d]pyrimidin-7-one]"
13,185 to 186,"O=c1ccc2cnc(Nc3ccc(N4CCC(CCCN5CCOCC5)CC4)cc3)nc2n1C1CC2CCC1C2 (stereo not drawn) [Example 217, 8-Bicyclo[2.2.1]hept-2-yl-2-[4-[4-(3-morpholin-4-yl-propyl)-piperidin-1-yl]-phenylamino]-8H-pyrido[2,3-d]pyrimidin-7-one]"
14,212 to 213,"CN(C)CCCN1CCN(c2ccc(Nc3ncc4ccc(=O)n(C5CC6CCC5C6)c4n3)cc2)CC1 (stereo not drawn) [Example 230, 8-Bicyclo[2.2.1]hept-2-yl-2-{4-[4-(3-dimethylamino-propyl)-piperazin-1-yl]-phenylamino}-8H-pyrido[2,3-d]pyrimidin-7-one]"
15,70 to 72,"CCN(CC)CCOc1ccc(Nc2ncc3ccc(=O)n(CCCOCc4ccccc4)c3n2)cc1 [Example 116, 8-(3-Benzyloxy-propyl)-2-[4-(2-diethylamino-ethoxy)-phenylamino]-8H-pyrido[2,3-d]pyrimidin-7-one]"
16,212 to 213,"O=c1ccc2cnc(Nc3ccc(N4CCCCC4)cc3)nc2n1CC1CCCCC1 [Example 183, 8-Cyclohexylmethyl-2-(4-piperidin-1-yl-phenylamino)-8H-pyrido[2,3-d]pyrimidin-7-one]"
17,96 to 97,"CCn1c(=O)ccc2cnc(NCc3ccccc3)nc21 [Example 44, 2-Benzylamino-8-ethyl-8H-pyrido[2,3-d]pyrimidin-7-one]"
18,156 to 158,"O=c1ccc2cnc(Nc3ccccc3)nc2n1C1CCCCCC1 [Example 155, 8-Cycloheptyl-2-phenylamino-8H-pyrido[2,3-d]pyrimidin-7-one]"
19,85 to 86,O=c1ccc2cnc(Nc3ccc(N4CCCCC4)cc3)nc2n1CCCOC1CCCCO1 (stereo not drawn) [Example 158]
20,230 to 231,"O=c1ccc2cnc(Nc3ccccc3)nc2n1CC1CCCCC1 [Example 182, 8-Cyclohexylmethyl-2-phenylamino-8H-pyrido[2,3-d]pyrimidin-7-one]"
21,230 to 232,"O=c1ccc2cnc(Nc3ccc(N4CCCCC4)cc3)nc2n1C1CCCC1O (stereo not drawn) [Example 242, 8-(2-Hydroxy-cyclopentyl)-2-(4-piperidin-1-yl-phenylamino)-8H-pyrido[2,3-d]pyrimidin-7-one]"

# Source: patent US20040224958A1, “Pyridopyrimidinone derivatives for treatment of neurodegenerative disease” (priority 2000, published 2004)
